Test results reported in patent US20100069854A1, “Elastomeric Devices Containing Chlorhexidine/Fatty Acid Salts Made From Fatty Acids of 12 to 18 Carbons” (priority 2008, published 2010).

Tests used:
[1] = Rate of release of chlorhexidine/fatty acid salts from coated polyurethane tubes into DI water; format: physicochemical; settings: for Cumulative release of the chlorhexidine/fatty acid salts from the coated polyurethane tubes: 1 cm coated tube in DI water, 37° C.; for Time by which approximately all of the salt was released from the coated sample: coated polyurethane tube in DI water
Procedure: A solution of each respective chlorhexidine/fatty acid salt was prepared and used to infuse a sample of elastomeric material. To perform the test, individual samples, 8 cm pieces of polyurethane tube containing a colorant, were surface dip coated in respective solutions of the chlorhexidine/fatty acid salts. The solutions were prepared as follows: 8.6 g of Tecoflex (Noveon, Cleveland, Ohio) was dissolved in 174 g of Tetrahydrofuran and methanol. 5.88 g of chlorhexidine acetate, chlorhexidine laurate, chlorhexidine myristate, chlorhexidine palmitate and chlorhexidine stearate were individually dissolved into the polymer-solvent mixture. The samples were immersed into the solvent-polymer-salt mixture and then dried at room temperature, evaporating the solvent. A polymeric coating was produced on the surface of the tubes. The amounts of chlorhexidine/fatty acid salt adhered per cm of the tube was measured (Table 2) by exhaustively extracting the salt and measuring UV absorbance at 253 nm relative to controls: For each of the samples, the rate of release of chlorhexidine/fatty acid salts into an aqueous solution was determined. To perform the rate of release test, 1 cm from each of the coated polyurethane tubes, were submerged in DeIonized (DI) water and incubated at 37° C. for a period of 28 days to determine the rate of release of the salts from the respective 1 cm samples of coated polyurethane tubing. The water was collected and replaced with fresh water after approximately 2 hours. The water was again collected and replaced with fresh water after the first day and every seven days thereafter. The amount of chlorhexidine/fatty acid salt in the collected water was measured with an Agilent 8453 UV-Vis Diode Array Detector with a manual setup using a cuvette w/path length of 1 cm. Chlorhexidine absorbance was read at 253 nm and concentration was calculated via a calibration curve developed using standards of 1, 5, 10, 20, 30, 35, and 40 μg/mL chlorhexidine acetate in DI Water. The percentage of chlorhexidine/fatty acid salt released from the sample into an aqueous media (percent release) was calculated according to the following equation: Percent release=(cumulative release at that time period/initial content)*100.

[2] = test system: Pseudomonas aeruginosa ATCC 27853; assay: Basic broth adherence assay on coated polyurethane tubes; format: cell-based; settings: for Inhibition of adherence / antimicrobial effect against Pseudomonas aeruginosa (in words): coated polyurethane tubes compared to uncoated control
Procedure: The antimicrobial effectiveness of the coated samples was subjected to different durations of DI water extraction by basic broth adherence assay. For each chlorhexidine/fatty acid salt tested, 3 samples of coated tubing were prepared and assayed. To prepare the inoculum, a culture of Pseudomonas aeruginosa ATCC 27853 was used to challenge the coated polyurethane tubes and controls. The negative control used was a length of uncoated polyurethane tube. The challenge microorganism suspension was prepared as follows: approximately three colonies were removed from a secondary working culture plated on Trypticase Soy Agar (TSA) (BD-Falcon) with 5% sheep's blood and added to 10 ml of Trypticase Soy Broth (TSB). The vial was vortexed for approximately 30 seconds and incubated for 4 hours at 37° C. at 100 rpm. Following incubation, the vial was removed and vortexed. The optical density of the organism suspension was read. The inoculum was then diluted in TSB to a concentration of 5×10^4 colony forming units per milliliter (CFU/mL). This concentration was confirmed by the Miles and Misra drop count method.
The basic broth adherence assay was performed in a 96 well micro titer plate. To each well of the micro titer plate containing either a test article or a control, 900 μl of TSB was added. To this, 100 μl of the adjusted inoculum was added (Note: Due to the 1/10 dilution per well, the starting inoculum concentration of each organism was […] for Pseudomonas aeruginosa). The micro titer plates were then sealed via parafilm® around the edges and wrapped in foil to avoid evaporation of liquid and light contact with the samples. The plates were then placed inside a shaker incubator set at 37° C. and 100 rpm for 24 hours. Incubation at 37° C. then continued until the elapse of 7 days, 14 days, and 21 days, respectively, for each of the 3 samples prepared for each chlorhexidine/fatty acid salt.
At the completion of the respective incubation periods, the samples were rinsed, sonicated, the sonicate was plated and adherence was evaluated. More particularly, following incubation, all samples and controls were dip-rinsed twice in phosphate buffered saline (PBS) to remove the surrounding media. After rinsing, test articles were sonicated in micro titer plate wells containing 1 mL of Dey-Engley (DE) neutralizing broth (Difco). The sonication liquid was then serially diluted, and plated onto the surface of DE neutralizing agar. Plates were incubated at 37° C. for 24 to 48 hours and colonies were counted. Recovery counts were recorded as CFU/mL.

[3] = test system: Candida albicans ATCC 10231; assay: Zone of inhibition assay with impregnated polyurethane foam discs; format: cell-based; settings: for Zone of inhibition compared with the other salts (in words): impregnated polyurethane foam, after several daily transfers / over the 9 day assay
Procedure: To evaluate antimicrobial properties of polyurethane foam samples infused with the various chlorhexidine/fatty acid salts, a zone of inhibition assay was performed. In this assay, 1.4% (w/v) of chlorhexidine acetate, chlorhexidine caprate, chlorhexidine laurate, chlorhexidine myristate, chlorhexidine palmitate and chlorhexidine stearate solutions in methanol were prepared. A supply of 8 mm discs were punched out of a sheet of polyurethane foam (Rynel medical grade polyurethane foam) with biopsy punches (Miltex Kai). Several discs were placed in each of six 50 ml centrifuge tubes. Approximately 5 ml of each of the different methanol/chlorhexidine/fatty acid salt solutions was added to each respective tube. The discs were centrifuged for 5 minutes to remove any air bubbles and soaked for 1 hr to infuse the foam discs with the respective chlorhexidine/fatty acid salt. Infused discs were transferred to clean centrifuge tubes and vacuum dried at 25° C. for 24 hrs to remove any residual solvents. Initial concentrations of salts, impregnated into the punches, were determined by dissolving the impregnated foams and by high pressure liquid chromatography (HPLC) analysis using an Agilent Eclipse XDB-CN 3u 4.6×150 mm column with initial mobile phase=65% DI water/0.2% trifluoroacetic acid (TFA): 35% Acetonitrile/0.2% TFA. Chlorhexidine absorbance was read at 253 nm and concentration was calculated via a chlorhexidine calibration curve. […] To perform the zone of inhibition assay on the impregnated polyurethane foam discs, agar plates were prepared by mixing 11 g Mueller-Hinton cation-adjusted broth and 1.5 g agarose in 500 ml DI water. The agar was autoclaved for 15 minutes at 121° C., 15 psi. 10 ml of the still hot, liquid agar was pipetted onto petri dishes. The challenge organism, Candida albicans ATCC 10231, was cultivated in Trypticase soy broth, standard microbiological growth medium (TSB). Sterile cotton swabs were dipped into the undiluted culture and the plated agar was fully inoculated with swabs. The 8 mm polyurethane foam discs were transferred daily to a freshly inoculated agar for 9 days. The zone of inhibition (ZOI) was measured using calipers. Actual ZOI was measured by subtracting the diameter of the foam (when wet) from the zone measured and dividing by 2. The results are presented in Table 6, with a graphical representation of the ZOI in FIG. 2;

[4] = Incorporation of chlorhexidine salts into silicone tubing (swelling impregnation, extraction, HPLC); format: physicochemical; settings: for Salt content in silicone elastomeric medical article: one day, equivalent mass of chlorhexidine base extracted;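 as to Salt content in silicone elastomeric medical article: columns differ by chlorhexidine salt concentration in the impregnation solution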
Procedure: Chlorhexidine diacetate, Chlorhexidine dodecanoate and chlorhexidine palmitate were loaded into silicone tubing by first dissolving the chlorhexidine salt in a 90% THF+10% Methanol solution.
Impregnated chlorhexidine was extracted from the tubing by immersing in an excess of THF to fully swell it and then adding an equal volume of water to extract the chlorhexidine salt. The quantity of chlorhexidine was determined by previously enumerated HPLC method. It is reported below for different concentration impregnation solutions in terms of the equivalent mass of chlorhexidine base extracted: […]

[5] = Day 1, daily transfer to fresh agar
[6] = Day 2, daily transfer to fresh agar
[7] = Day 3, daily transfer to fresh agar
[8] = Day 4, daily transfer to fresh agar
[9] = Day 7, daily transfer to fresh agar
[10] = Day 8, daily transfer to fresh agar
[11] = Day 9, daily transfer to fresh agar
[12] = 1% impregnation solution in 90% THF+10% Methanol
[13] = 3% impregnation solution in 90% THF+10% Methanol
[14] = 6% impregnation solution in 90% THF+10% Methanol
[15] = 10% impregnation solution in 90% THF+10% Methanol

Cumulative release of the chlorhexidine/fatty acid salts from the coated polyurethane tubes ([1]; Day 1) | Cumulative release of the chlorhexidine/fatty acid salts from the coated polyurethane tubes ([1]; Day 7) | Cumulative release of the chlorhexidine/fatty acid salts from the coated polyurethane tubes ([1]; Day 14) | Cumulative release of the chlorhexidine/fatty acid salts from the coated polyurethane tubes ([1]; Day 21) | Cumulative release of the chlorhexidine/fatty acid salts from the coated polyurethane tubes ([1]; Day 28) | Time by which approximately all of the salt was released from the coated sample [1] | Salt content in silicone elastomeric medical article [4, 12] | Salt content in silicone elastomeric medical article [4, 13] | Salt content in silicone elastomeric medical article [4, 14] | SMILES | Log10 reduction of adhered Pseudomonas aeruginosa onto the surface of coated polyurethane tubes ([2]; 7 days) | Log10 reduction of adhered Pseudomonas aeruginosa onto the surface of coated polyurethane tubes ([2]; 14 days) | Log10 reduction of adhered Pseudomonas aeruginosa onto the surface of coated polyurethane tubes ([2]; 21 days) | ZOI produced by impregnated polyurethane foam punches against Candida albicans [3, 5] | ZOI produced by impregnated polyurethane foam punches against Candida albicans [3, 6] | ZOI produced by impregnated polyurethane foam punches against Candida albicans [3, 7] | ZOI produced by impregnated polyurethane foam punches against Candida albicans [3, 8] | ZOI produced by impregnated polyurethane foam punches against Candida albicans [3, 9] | ZOI produced by impregnated polyurethane foam punches against Candida albicans [3, 10] | ZOI produced by impregnated polyurethane foam punches against Candida albicans [3, 11] | Zone of inhibition compared with the other salts (in words) [3] | further results
155 g | 222 g | 224 g | 224 g | 224 g | ≤ 7 days | 262 µg/cm | 395 µg/cm | 374 µg/cm | CC(=O)O.CC(=O)O.NC(=N\CCCCCC/N=C(N)/N=C(\N)Nc1ccc(Cl)cc1)/N=C(\N)Nc1ccc(Cl)cc1 [Chlorhexidine Acetate, chlorhexidine diacetate, reference compound] | 5 | 0 | 0 | 12 mm | 11 mm | 14 mm | 8 mm | 8 mm | 12 mm | 12 mm | zones of inhibition that were smaller | Percent release of the initial salt concentration from the coated sample ([1]; within 1 day (FIG. 1)): approximately 70%; Inhibition of adherence / antimicrobial effect against Pseudomonas aeruginosa (in words) ([2]; listed as chlorhexidine acetate): inhibition was not apparent at 14 days or thereafter; Inhibition of adherence / antimicrobial effect against Pseudomonas aeruginosa (in words) ([2]; listed as chlorhexidine diacetate): not able to provide an antimicrobial effect against Pseudomonas aeruginosa after 7 days; Salt content in silicone elastomeric medical article [4, 15]: 439 µg/cm
62 g | 145 g | 165 g | 167 g | 167 g | ≤ 14 days | 249 µg/cm | 408 µg/cm | 526 µg/cm | CCCCCCCCCCCC(=O)O.NC(=NCCCCCCN=C(N)N=C(N)Nc1ccc(Cl)cc1)N=C(N)Nc1ccc(Cl)cc1 [Chlorhexidine Laurate, chlorhexidine dilaurate] | 7 | 0 | 0 | 27 mm | 31 mm | 32 mm | 27 mm | 23 mm | 31 mm | 29 mm | relatively largest ZOI | Inhibition of adherence / antimicrobial effect against Pseudomonas aeruginosa (in words) [2]: inhibition was not apparent at 14 days or thereafter; Salt content in silicone elastomeric medical article [4, 15]: 614 µg/cm; Absorption into silicone tubing compared with the other salts (in words) ([4]; silicone tubing, 90% THF+10% Methanol): absorbed at much higher concentrations than the other salts
